Laboratory results reported in patent US6511970B1, “Prevention of ovarian cancer by administration of products that induce transforming growth factor-beta and/or apoptosis in the ovarian epithelium” (New Life Pharmaceuticals Inc., priority 1996, dated 2003).

Columns and labels:
[1] = serum; cited from earlier work
[2] = tested on: human ovarian epithelial cells; assay: Cell death ELISA in normal human ovarian epithelial cell culture; assay type: cell-based; details: 100 nM, 96 hours, p=0.01
Method: Example 10 addresses the effect of administration of Vitamin D on human ovarian epithelial cells. According to this example, a cell culture derived from normal ovarian epithelial cells was plated in 24 well plates at a concentration of 100,000 cells per well. After 24 hours, the wells were treated with 1,25-dihydroxyvitamin D3 at a 100 nM concentration or control medium, and allowed to incubate for 96 hours. All experiments were carried out in triplicate. After 96 hours, cell lysates were extracted from each of the wells, and the cytoplasmic fraction was normalized for cell number and analyzed for DNA-histone complexes indicative of apoptosis using a cell death ELISA (Boehringer Mannheim). A significant (300%) increase in apoptosis (p=0.01) was measured in the human ovarian epithelial cells treated with Vitamin D as compared with the controls.

TGF β3 = assay: Anti-TGF β3 immunohistochemical staining of M-100 cells; assay type: cell-based, human; details: 100 nM, 72 hours
Method: An immortalized cell line, M-100, derived from a normal human ovarian epithelial cell culture established in our laboratory was plated in 100 mm plates at a concentration of 1 million cells per plate, in the presence of either 1,25 (OH)2 D3 or the Vitamin D analogue […] at doses of each (100 nM) or control medium, and allowed to incubate for 72 hours. After 72 hours, cells were scraped from each of the plates, fixed on glass slides, and stained immunohistochemically with anti-TGF β3 antibody.

TGF beta-3 [3] = assay: TGF beta-3 immunohistochemical staining in monkey ovarian epithelium; assay type: in vivo, cynomolgus monkeys; details: Triphasil-pattern doses in diet
From the text: (§1) Young female adult cynomolgus monkeys were fed a diet for three years that contained either no hormones, the oral combination contraceptive “[…],” the estrogenic component of “[…] estradiol) alone, or the progestin component of “[…]” (levonorgestrel) alone, each administered in the same pattern that occurs in a “[…]” regimen. Doses were scaled on the basis of caloric intake, which is the accepted way to achieve human-equivalent doses. […] This cyclic regimen was repeated every 28 days continuously for 2 years. In a similar experiment, the effect of hormone treatment on expression of TGF-β3 was examined in the ovaries of primates from the trial described above. This study uses monkeys that were randomized in the study above of apoptosis in the ovarian epithelium. […] Ovarian sections from each of the monkeys were stained immunohistochemically for expression of TGF beta-3, using an anti-TGF-beta-3 monoclonal antibody. […] Two blinded observers then quantitated degree of expression of TGF-β3 by grading the intensity of staining on a scale of 1-4+ in several ovarian compartments: 1) epithelium, 2) oocytes, 3) endothelial cells, 4) granulosa cells. The staining was characterized as negative (0-2+) versus positive (3-4+). The following tables show the distribution of negative (0-2) and positive (3-4) staining among the randomized treatment groups for each separate ovarian compartment (i.e.: epithelial, oocyte cytoplasm, granulosa, and endothelial).

ovarian epithelial cells = assay: Apoptosis in monkey ovarian surface epithelium in vivo (Apoptag-plus staining); set-up: species or system cynomolgus monkeys; details: in diet, Triphasil-pattern human-equivalent doses, 28-day cycles for 2 years
From the text: Young female adult cynomolgus monkeys were fed a diet for […] that contained either no hormones, the oral combination contraceptive “[…],” the estrogenic component of “[…] estradiol) alone, or the progestin component of “[…]” (levonorgestrel) alone, each administered in the same pattern that occurs in a “[…]” regimen. Doses were scaled on the basis of caloric intake, which is the accepted way to achieve human-equivalent doses. […] This cyclic regimen was repeated every 28 days continuously for 2 years. At the completion of the two years of the study, the animals were sacrificed, and their ovaries were removed and both formalin-fixed and paraffin embedded as well as flash frozen and stored at minus 70 degrees Celsius. Five-micron ovarian sections were mounted on coated slides, and stained with the Apoptag-plus kit (Oncor, Gaithersburg, Md.), which specifically labels the 3' end of free DNA fragments in cells undergoing DNA fragmentation, a characteristic of apoptosis. After staining, cells undergoing apoptosis were easily identified by their dark brown nuclear discoloration. The ovarian surface epithelium was examined histologically to assess ovarian epithelial morphology and to determine the percentage of ovarian cells undergoing apoptosis. To calculate the percentage of ovarian epithelial cells undergoing apoptosis, both the total number of ovarian epithelial cells and the number undergoing apoptosis were counted on each five-micron ovarian section. At each step, the investigators were completely blinded with regard to which treatment group was associated with each ovary.

TGF beta-3 [4] = assay: TGF beta-3 immunohistochemical staining in monkey ovarian endothelial cells; assay type: in vivo, cynomolgus monkeys; details: Triphasil-pattern doses in diet
From the text: as §1

TGF beta-3 [5] = assay: TGF beta-3 immunohistochemical staining in monkey ovarian oocytes; assay type: in vivo, cynomolgus monkeys; details: Triphasil-pattern doses in diet
From the text: as §1

TGF beta-3 [6] = assay: TGF beta-3 immunohistochemical staining in monkey ovarian granulosa cells; assay type: in vivo, cynomolgus monkeys; details: Triphasil-pattern doses in diet
From the text: as §1

[7] = tested on: M-100 immortalized human ovarian epithelial cells; assay: Cell death ELISA (DNA-histone complexes) in M-100 cells; assay type: cell-based; details: 20 ng/ml, 96 hours, P<0.05
Method: Specifically, a spontaneously immortalized cell line, M-100, derived from a normal human ovarian epithelial cell culture was plated in 24 well plates at a concentration of 100,000 cells per well. […] All experiments were performed in triplicate.

[8] = tested on: ovarian and oviductal tumors; assay: Two-year chemoprevention trial in the chicken; assay type: in vivo; details: two-year mark; feed restriction (anovulatory); preliminary results
Method: A two-year prevention trial was performed in the chicken, designed to test the hypothesis that progestins confer prevention against ovarian cancer. Two thousand two year-old birds were randomized into several groups, including untreated controls, and groups receiving the progestins provera or levonorgestrel. The trial has just completed, and tumors accrued during the trial are currently being studied.

| SMILES | TGF β3 expression as compared to controls (in words) (TGF β3) | Epithelial staining Negative (0-2+), number of monkeys (TGF beta-3 [3]) | Epithelial staining Positive (3-4+), number of monkeys (TGF beta-3 [3]) | Epithelial staining Positive (3-4+), percent of monkeys (TGF beta-3 [3]) | Median Percent of Apoptotic Cell Counts (ovarian epithelial cells) [%] | Range Percent of Apoptotic Cell Counts (ovarian epithelial cells) | Endothelial staining Negative (0-2+), number of monkeys (TGF beta-3 [4]) | Endothelial staining Positive (3-4+), number of monkeys (TGF beta-3 [4]) | Endothelial staining Positive (3-4+), percent of monkeys (TGF beta-3 [4]) | Oocyte cytoplasm staining Negative (0-2+), number of monkeys (TGF beta-3 [5]) | Oocyte cytoplasm staining Positive (3-4+), number of monkeys (TGF beta-3 [5]) | Oocyte cytoplasm staining Positive (3-4+), percent of monkeys (TGF beta-3 [5]) | Granulosa Cell staining Negative (0-2+), number of monkeys (TGF beta-3 [6]) | Granulosa Cell staining Positive (3-4+), number of monkeys (TGF beta-3 [6]) | Granulosa Cell staining Positive (3-4+), percent of monkeys (TGF beta-3 [6]) | fewer ovarian and oviductal tumors than controls [8] [%] | other results |
| --- | --- | --- | --- | --- | --- | --- | --- | --- | --- | --- | --- | --- | --- | --- | --- | --- | --- |
| C=C1/C(=C\C=C2/CCC[C@]3(C)[C@@H]([C@H](C)CCCC(C)(C)O)CC[C@@H]23)C[C@@H](O)C[C@@H]1O [1,25-dihydroxyvitamin D3] | significant increase in TGF β3 expression | – | – | – | – | – | – | – | – | – | – | – | – | – | – | – | half-life [1]: 6 to 8 h; increase in apoptosis as compared with the controls [2]: 300% |
| C=C1CC[C@H](O)C/C1=C/C=C1\CCC[C@]2(C)[C@@H]([C@H](C)CCCC(C)(C)O)CC[C@@H]12 [25-hydroxyvitamin D3] | – | – | – | – | – | – | – | – | – | – | – | – | – | – | – | – | biological half-life (in words) [1]: several weeks |
| C=C1/C(=C\C=C2/CCC[C@]3(C)[C@@H]([C@H](C)/C=C/C=C/C(O)(CC)CC)CC[C@@H]23)C[C@@H](O)C[C@@H]1O [E1089] | significant increase in TGF β3 expression | – | – | – | – | – | – | – | – | – | – | – | – | – | – | – | – |
| C#C[C@]1(O)CC[C@H]2[C@@H]3CCc4cc(O)ccc4[C@H]3CC[C@@]21C [Ethinyl Estradiol (EE), ethinyl estradiol] | – | 19 | 2 | (10%) | 1.8 | 0.1-28.6% | 21 | 5 | (23%) | 4 | 17 | (81%) | 13 | 8 | (38%) | – | Median Percent of Apoptotic Cell Counts (ovarian epithelial cells; listed as Ethinyl-estradiol-only): 1.8% |
| C#C[C@]1(O)CC[C@H]2[C@@H]3CCC4=CC(=O)CC[C@@H]4[C@H]3CC[C@@]21CC [Levonorgestrel, levonorgestrel] | – | 0 | 17 | (100%) | 24.9 | 3.5-61.8% | 1 | 16 | (94%) | 3 | 14 | (82%) | 16 | 1 | (6%) | 35 | increase in apoptosis as compared to controls [7]: 100% |
| CC(=O)O[C@]1(C(C)=O)CC[C@H]2[C@@H]3C[C@H](C)C4=CC(=O)CC[C@]4(C)[C@H]3CC[C@@]21C [provera, medroxyprogesterone acetate] | – | – | – | – | – | – | – | – | – | – | – | – | – | – | – | 35 | – |
